Test [1] concerns A549 cell line. As to the kind of experiment: cells. To be noted: Homo sapiens. Type of test: cell-based. The protocol:
A549 cells were obtained from ATCC and cultured with culture medium (D0819 DMEM 10% FBS 1% penicillin/streptomycin) at 37°C. Cell viability was measured using an MTT assay. MTT ((3-[4,5-dimethylthiazol-2-yl]-2,5-diphenyltetrazolium bromide) (1x), at 5 mg/ml) was added for 1 hour and formazan was dissolved with DMSO (dimethyl sulfoxide). Optical density at a wavelength of 570 nm was measured using a microplate reader (Hidex plate reader) to quantify the relative number of living cells. To determine treatment concentrations, cells were treated with serially diluted drugs until a concentration that reduced cell viability by around 50%. […] Cells were treated with the drugs at their designated concentrations for two days.

In test [2] the test system is A549 cell line. As to the kind of experiment: LDH cytotoxicity assay. The class given is cell-based. The protocol: 30 minutes after LDH (Abcam Cat# ab65393) administration, optical density at a wavelength of 450 nm was measured using a microplate reader (Hidex plate reader) to quantify the relative LDH activity which was released into the media via the drug's cytotoxic effect.

In test [3] the test system is TTK. In words: Western blot of TTK protein expression in A549 cells after drug treatment. The class given is cell-based. To be noted: A549, 10µM. The protocol: PVDF membranes were blocked for 30 minutes with 5% skim milk and TBST (Tris Buffered Saline with 0.2% Tween 20) and then treated overnight on a shaker plate at 4°C with 0.5% skim milk with TBST and MCM6 (Abcam Cat# ab201683) and TTK (Abcam Cat# ab187520) primary antibodies diluted 1:20000 and for 30 minutes with TUBA1A (Abeam Cat# ab7291, RRID:AB_2241126) primary antibodies diluted 1:20000. The solution was then replaced with a new solution of 0.5% skim milk with TBST and anti-rabbit (Abeam Cat# ab6721, RRID:AB_955447) or anti-mouse (Abeam Cat# ab6789, RRID:AB_955439) secondary antibodies diluted 1:20000 for 30 minutes.

For test [4], the system named is MCM6. As to the kind of experiment: Western blot of MCM6 protein expression in A549 cells after drug treatment.
[5] abbreviates: A549, 48 h, read-out: cell viability.
Setting [6] is: A549, dose dependent MTT assay, read-out: concentration which could reduce the cell viability by 50%.

Read-outs that look alike come from different tables or passages of the source.

The text below walks through data of patent EP4427750A1, “TREATMENT OF LUNG ADENOCARCINOMA” (priority 2023, dated 2024).

Consider `OCCCNc1cc(-c2ccnc(Nc3cccc(Cl)c3)n2)ccn1` [CGP-60474], for which the viability at 10 µM in test [1] (setting [5]) is 29.1%. Besides, in test [1] (setting [6]), the IC50 was 10 µM. Moreover, the necrotic cell death result in test [2] (A549, 10µM, lysis positive control 100%, untreated 0%) is “did not induce necrotic cell death”. In test [3], the “effect on TTK protein level” value is listed as “showed an inhibitory effect on TTK”. The “protein level of MCM6” value in test [4] (A549, 10µM) is “significantly reduced”.

For `O=C1c2c(O)ccc(O)c2C(=O)c2c(NCCNCCO)ccc(NCCNCCO)c21` [mitoxantrone], the viability at 0.1 µM in test [1] (setting [5]) was found to be 52.2%. Also, the IC50 in test [1] (setting [6]) amounted to 0.1 µM. The cytotoxicity at 0.1 µM in test [2] (Homo sapiens, A549, 48 h, read-out: necrotic cell death) came out at 3.45%. Further, the “protein level of MCM6” value in test [4] (A549, 100nM) is on record as “significantly reduced”.

As for `COC[C@H]1OC(=O)c2coc3c2[C@@]1(C)C1=C(C3=O)[C@@H]2CCC(=O)[C@@]2(C)C[C@H]1OC(C)=O` [wortmannin], in test [1] (setting [5]), the viability at 10 µM is 62.3%. In addition, the IC50 in test [1] (A549, read-out: concentration which could reduce the cell viability by 50%) was 10 µM. Further, the necrotic cell death entry in test [2] is reported as “did not induce necrotic cell death”.
